Experimental data as given in patent publication US4073900A, “11β-FLUOROPREGNENES” (Schering Aktiengesellschaft, priority 1975, dated 1978).

What was measured:
[1] = system: seminal vesicles; assay: antiandrogen test, seminal vesicle weight in testosterone propionate-treated male castrated rats; type: in vivo; settings: daily dosage s.c. over 7 days, 0.1 mg testosterone propionate daily s.c., halves organ weight caused by testosterone propionate
Protocol: The antiandrogenic activity was tested on male castrated rats weighing about 100 g. Starting with 1 week after castration, the test compound was administered in staggered doses subcutaneously over a period of 7 days. Over the same time period, the animals received daily 0.1 mg. of testosterone propionate subcutaneously. On the eighth day, the animals were sacrificed, and the weights of the seminal vesicles were determined. As the ED50, the daily dosage was determined which reduced the organ weight caused solely by testosterone propionate to one-half.

[2] = system: infantile female rabbits; assay: Clauberg test, progestational activity (McPhail values) after oral administration to infantile female rabbits; type: in vivo
Protocol: For the progestational effect, the McPhail values were determined in the usual Clauberg test after oral administration to infantile female rabbits. The minimum amount required to achieve a positive effect is expressed by the McPhail value of 1.5.

[3] = oral, dose 0.001 mg, infantile female rabbits
[4] = oral, dose 0.003 mg, infantile female rabbits
[5] = oral, dose 0.01 mg, infantile female rabbits

| SMILES | Antiandrogenic Activity ED50 Seminal Vesicle [1] [mg] | Progestational Activity, McPhail [2, 3] | Progestational Activity, McPhail [2, 4] | Progestational Activity, McPhail [2, 5] | threshold dose (McPhail 1.5) for the progestational activity ([2]; oral, infantile female rabbits, minimum amount for positive effect) [mg] | Clauberg test, comparison with compound B ([2]; compared with the conventional compound B) |
| --- | --- | --- | --- | --- | --- | --- |
| CC(=O)O[C@]1(C(C)=O)CC[C@H]2[C@@H]3C=C(Cl)C4=CC(=O)[C@@H]5C[C@@H]5[C@]4(C)[C@H]3CC[C@@]21C [B, 17-acetoxy-6-chloro-1α,2α -methylene-4,6-pregnadiene-3,20-dione, reference compound] | 0.1 to 0.3 | 1.0 | 1.5 | 2.9 | 0.003 | – |
| CC(=O)O[C@]1(C(C)=O)CC[C@H]2[C@@H]3C=C(Cl)C4=CC(=O)[C@@H]5C[C@@H]5[C@]4(C)[C@H]3[C@@H](F)C[C@@]21C [A, 17-acetoxy-6-chloro-11β-fluoro-1α,2α -methylene-4,6-pregnadiene-3,20-dione] | 0.3 to 1.0 | 1.1 | 2.0 | 3.4 | – | superior |
